The assay deals with PC-3 cells. As to the kind of experiment: Antiproliferative activity, Alamar Blue assay, PC-3 cells. In kind it is cell-based, human. The note with it: for IC50: Homo sapiens, PC-3, PC3 cells, read-out: PC3 antiproliferative activity pIC50 (converted). A digest of the protocol: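 Resazurin-based fluorescence (540 nm ex/590 nm em) measured after 4-day compound treatment plus 24 hrs dye incubation at 37° C. Cells plated at 4.5×10^3 cells/ml, adhered 24 hr first. pIC50 from probit-derived IC50 on % viable cells versus untreated, triplicate wells.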
In general terms: Alamar Blue is a resazurin reagent that responds to reducing activity.

Like-named read-outs stand apart in the source and are kept apart here.

Take `CCc1cc2ccc(C(C)(C#N)Cc3nc(C#N)cc(OC)n3)cc2[nH]c1=O` (single isomer, unassigned) [Compound 204]: where the note is “PC3 cells”, the “PC3 antiproliferative activity pIC50” value is 6.8.
For `CCc1cc2c(OC)cc(C(C)(C#N)Cc3nc(OC)cc(OC)n3)cc2[nH]c1=O` (single isomer, unassigned) [Compound 230], for the setting “Alamar Blue”, the IC50 is 2000 nM.
Same read-out and setting: to `CCc1cc2ccc([C@@](C)(C#N)CCOc3ccc(C#N)cc3)cc2[nH]c1=O` (single isomer, unassigned) [Compound 273] belongs 398 nM; to `CCc1cc2ccc([C@](C)(C#N)CCOc3ccc(C#N)cc3)cc2[nH]c1=O` (single isomer, unassigned) [Compound 275], 10000 nM.
`CCc1cc2ccc([C@](C)(C#N)Cc3cccc(/C=C/S(C)(=O)=O)c3)cc2[nH]c1=O` (single isomer, unassigned) [Compound 291]: the IC50 (Alamar Blue) was 501 nM.
On the same count and under the same terms, next, `CCc1cc2ccc([C@@](C)(C#N)Cc3cccc(C#CCO)c3)cc2[nH]c1=O` (single isomer, unassigned) [Compound 295]: 10000 nM.
On the same count and under the same terms, to `CCc1cc2ccc([C@](C)(C#N)Cc3cccc(C#CCO)c3)cc2[nH]c1=O` (single isomer, unassigned) [Compound 296] belongs 100 nM; to `CCc1cc2ccc([C@@](C)(C#N)Cc3cc(OC)nc(C)n3)cc2[nH]c1=O` (single isomer, unassigned) [Compound 361], 10000 nM; to `CCc1cc2ccc([C@](C)(C#N)Cc3cc(OC)nc(C)n3)cc2[nH]c1=O` (single isomer, unassigned) [Compound 362], 631 nM.
The same measure, in the same setting: next, `Cc1cc2ccc([C@@](C)(C#N)C3CCc4ccccc43)cc2[nH]c1=O` (single isomer, unassigned) [Compound 385]: 10000 nM.
As for `Cc1cc2ccc([C@](C)(C#N)C3CCc4ccccc43)cc2[nH]c1=O` (single isomer, unassigned) [Compound 386], the IC50 (Alamar Blue) is 200 nM.
With `CCc1cc2ccc(C(C)(C#N)Cc3cccc(OCCCN4CCNCC4)c3)cc2[nH]c1=O` (stereo not drawn) [Compound 25], the IC50 is 6310 nM.
`CCc1cc2ccc(C(C#N)(Cc3ccccc3)c3ccc(C#N)cc3)cc2[nH]c1=O` (stereo not drawn) [Compound 26]: the IC50 is over 10000 nM.
On the same count and under the same terms, to `CCc1cc2ccc(C(C#N)(Cc3ccccc3)c3ccccc3)cc2[nH]c1=O` (stereo not drawn) [Compound 27] belongs 6310 nM.
On the same count and under the same terms, to `CCc1cc2ccc(C(C#N)(Cc3ccccc3)C3CC3)cc2[nH]c1=O` (stereo not drawn) [Compound 29] belongs 5010 nM; to `CCc1cc2ccc(C(C#N)(Cc3ccccc3)C(C)C)cc2[nH]c1=O` (stereo not drawn) [Compound 30], 6310 nM; to `CCCC(C#N)(Cc1ccccc1)c1ccc2cc(CC)c(=O)[nH]c2c1` (stereo not drawn) [Compound 31], 3160 nM.
With `CCc1cc2ccc(C(C)(C#N)Cc3cc(OC)ccc3F)cc2[nH]c1=O` (stereo not drawn) [Compound 171], the IC50 is 200 nM.
Regarding `CCc1cc2ccc(C(C)(C#N)Cc3cccc(-c4ccc[nH]4)c3)cc2[nH]c1=O` (stereo not drawn) [Compound 176], the IC50 (Alamar Blue) was 5010 nM.
Consider `CCc1cc2ccc(C(C)(C#N)Cc3cccc(CCS(C)(=O)=O)c3)cc2[nH]c1=O` (stereo not drawn) [Compound 178], for which the IC50 (Alamar Blue) is 10000 nM.
The same measure, in the same setting: next, `Cc1cc2ccc(C(C)(C#N)Cc3cccc(C=Cc4ccccc4)c3)cc2[nH]c1=O` (stereo not drawn) [Compound 179]: 7940 nM.
`CCc1cc2ccc(C(C)(C#N)Cc3cccc(/C=N/OC)c3)cc2[nH]c1=O` (stereo not drawn) [Compound 185]: the IC50 was 251 nM.
Turning to `CCc1cc2ccc(C(C)(C#N)Cc3cccc(C(=N)NO)c3)cc2[nH]c1=O` (stereo not drawn) [Compound 186], where the note is “Alamar Blue”, the IC50 was 5010 nM.
Still for that read-out and setting: next, `Cc1cc2ccc(C(C)(C#N)Cc3cccc(Oc4ccc(F)cc4)c3)cc2[nH]c1=O` (stereo not drawn) [Compound 192]: 1580 nM.
Take `CCc1cc2ccc(C(C)(C#N)Cc3cccc(OCCCC#N)c3)cc2[nH]c1=O` (stereo not drawn) [Compound 194]: the IC50 was 631 nM.
As for `CCc1cc2ccc(C(C)(C#N)Cc3cccc(OCCC#N)c3)cc2[nH]c1=O` (stereo not drawn) [Compound 195], the IC50 (Alamar Blue) was 251 nM.
Still for that read-out and setting: next, `C#CCOc1cccc(CC(C)(C#N)c2ccc3cc(CC)c(=O)[nH]c3c2)c1` (stereo not drawn) [Compound 196]: 1000 nM; `CCc1cc2ccc(C(C)(C#N)COCc3ccccc3)cc2[nH]c1=O` (stereo not drawn) [Compound 197]: 6310 nM.
Regarding `CCc1cc2ccc(C(C)(C#N)Cc3cccc(OCCS(C)(=O)=O)c3)cc2[nH]c1=O` (stereo not drawn) [Compound 201], the IC50 is 5010 nM.
For `CCc1cc2ccc(C(C)(C#N)Cc3nc(Cl)cc(OC)n3)cc2[nH]c1=O` (stereo not drawn) [Compound 202], the IC50 (Alamar Blue) was 251 nM.
Still for that read-out and setting: next, `CCc1cc2ccc(C(C)(C#N)Cc3nc(N(C)C)cc(N(C)C)n3)cc2[nH]c1=O` (stereo not drawn) [Compound 205]: 1260 nM; `CCc1cc2ccc(C(C)(C#N)Cc3cccc(N4CCC(N(C)C)C4)n3)cc2[nH]c1=O` (stereo not drawn) [Compound 209]: 5010 nM; `CCc1cc2ccc(C(C)(C#N)Cc3cccc(C#Cc4cncn4C)n3)cc2[nH]c1=O` (stereo not drawn) [Compound 217]: 6310 nM.
On the same count and under the same terms, next, `CCc1cc2ccc(C(C)(C#N)Cc3cccc(N(C)CCc4ccccc4)n3)cc2[nH]c1=O.Cl` (stereo not drawn) [Compound 220]: 7940 nM.
With `CCc1cc2ccc(C(C)(C#N)Cc3cccc(C#N)[n+]3[O-])cc2[nH]c1=O` (stereo not drawn) [Compound 228], the IC50 was 3160 nM.
Regarding `CCc1cc2c(OC)cc(C(C)(C#N)Cc3nc(OC)cc(OC)n3)cc2[nH]c1=O` (stereo not drawn) [Compound 229], where the note is “Alamar Blue”, the IC50 was 5010 nM.
Same read-out and setting: next, `CCc1cc2ccc(C(C)(C#N)CN3CCN(c4ccccn4)CC3)cc2[nH]c1=O` (stereo not drawn) [Compound 233]: 2000 nM; `Cc1nc(-c2ccccc2)sc1CC(C)(C#N)c1ccc2cc(C)c(=O)[nH]c2c1` (stereo not drawn) [Compound 235]: 1580 nM; `CCc1cc2ccc(C(C)(C#N)Cc3cccc4c3CCN4)cc2[nH]c1=O` (stereo not drawn) [Compound 237]: 6310 nM.
Turning to `CCc1cc2ccc(C(C)(C#N)Cc3cccc(C(=O)OC(C)C)c3)cc2[nH]c1=O` (stereo not drawn) [Compound 255], the IC50 (Alamar Blue) is 251 nM.
Same read-out and setting: next, `Cc1cc2ccc(C(C)(C#N)Cc3cccc(I)c3)cc2[nH]c1=O` (stereo not drawn) [Compound 256]: 1000 nM.
Still for that read-out and setting: next, `CCc1cc2ccc(C(C)(C#N)Cc3cccc(NC)c3)cc2[nH]c1=O` (stereo not drawn) [Compound 257]: 1580 nM; `CCc1cc2ccc(C(C)(C#N)Cc3cc(Br)cc(N(C)C)c3)cc2[nH]c1=O` (stereo not drawn) [Compound 260]: 200 nM; `Cc1cc2ccc(C(C)(C#N)Cc3cccc(OCC4CCOCC4)c3)cc2[nH]c1=O` (stereo not drawn) [Compound 261]: 6310 nM.
Turning to `CCc1cc2ccc(C(C)(C#N)Cc3cc(F)ccc3F)cc2[nH]c1=O` (stereo not drawn) [Compound 280], the IC50 (Alamar Blue) is 631 nM.
Same read-out and setting: next, `CCc1cc2ccc(C(C)(C#N)Cc3ccc(F)c(F)c3)cc2[nH]c1=O` (stereo not drawn) [Compound 281]: 1580 nM.
On the same count and under the same terms, to `CCc1cc2ccc(C(C)(C#N)Cc3cc(C(F)(F)F)ccc3F)cc2[nH]c1=O` (stereo not drawn) [Compound 283] belongs 2000 nM; to `CCOc1cccc(CC(C)(C#N)c2ccc3cc(CC)c(=O)[nH]c3c2)c1` (stereo not drawn) [Compound 285], 1580 nM.
Same read-out and setting: to `CCc1cc2ccc(C(C)(C#N)Cc3cccc(OC)c3F)cc2[nH]c1=O` (stereo not drawn) [Compound 286] belongs 2000 nM; to `CCc1cc2ccc(C(C)(C#N)Cc3cc(C(C)C)ccc3OC)cc2[nH]c1=O` (stereo not drawn) [Compound 288], 2000 nM; to `CCc1cc2ccc(C(C)(C#N)Cc3cc(OC)c(OC)c(OC)c3)cc2[nH]c1=O` (stereo not drawn) [Compound 289], 316 nM.
With `CCc1cc2ccc(C(C)(C#N)Cc3cccc(/C=N/O)c3)cc2[nH]c1=O` (stereo not drawn) [Compound 299], the IC50 (Alamar Blue) is 1000 nM.
Still for that read-out and setting: next, `CCc1cc2ccc(C(C)(C#N)CN(C)Cc3ccc(C#N)cc3)cc2[nH]c1=O` (stereo not drawn) [Compound 300]: 501 nM.
Same read-out and setting: next, `CCc1cc2ccc(C(C)(C#N)CNCc3ccc(C#N)cc3)cc2[nH]c1=O` (stereo not drawn) [Compound 302]: 5010 nM.
Same read-out and setting: to `Cc1cc2ccc(C(C)(C#N)Cc3cccc(Oc4ccccc4)c3)cc2[nH]c1=O` (stereo not drawn) [Compound 305] belongs 3160 nM; to `CCc1cc2ccc(C(C)(C#N)Cc3nc(C#N)cc(OC)n3)cc2[nH]c1=O` (stereo not drawn) [Compound 313], 251 nM.
Consider `CCc1cc2ccc(C(C)(C#N)Cc3cc(C#N)nc(OC)c3)cc2[nH]c1=O` (stereo not drawn) [Compound 314], for which the IC50 was 1000 nM.
In the case of `CCc1cc2ccc(C(C)(C#N)Cc3cc(N(C)C)nc(C#N)n3)cc2[nH]c1=O` (stereo not drawn) [Compound 317], where the note is “Alamar Blue”, the IC50 is 5010 nM.
The same measure, in the same setting: next, `CCc1cc2ccc(C(C)(C#N)Cc3nc(C#N)cc(N(C)C)n3)cc2[nH]c1=O` (stereo not drawn) [Compound 318]: 631 nM.
Still for that read-out and setting: to `CCc1cc2ccc(C(C)(C#N)Cc3cc(C#N)nc(C)n3)cc2[nH]c1=O` (stereo not drawn) [Compound 319] belongs 3980 nM.
With `CCc1cc2ccc(C(C)(C#N)Cc3cc(N(C)C)nc(N(C)C)n3)cc2[nH]c1=O` (stereo not drawn) [Compound 320], the IC50 (Alamar Blue) was 631 nM.
The same measure, in the same setting: next, `CCc1cc2ccc(C(C)(C#N)Cc3cc(N(C)C)nc(C)n3)cc2[nH]c1=O` (stereo not drawn) [Compound 322]: 2510 nM.
On the same count and under the same terms, next, `CCc1cc2ccc(C(C)(C#N)Cc3cc(Cl)nc(N(C)C)c3)cc2[nH]c1=O` (stereo not drawn) [Compound 323]: 1000 nM.
Take `CCc1cc2ccc(C(C)(C#N)Cc3cc(C#N)nc(N(C)C)c3)cc2[nH]c1=O` (stereo not drawn) [Compound 325]: the IC50 was 1260 nM.
Take `CCc1cc2ccc(C(C)(C#N)Cc3cccc(NC)n3)cc2[nH]c1=O` (stereo not drawn) [Compound 339]: the IC50 (Alamar Blue) is 3160 nM.
On the same count and under the same terms, to `CCc1cc2ccc(C(C)(C#N)Cc3ccc4c(c3)OC(F)(F)O4)cc2[nH]c1=O` (stereo not drawn) [Compound 346] belongs 3160 nM.
As to `CCc1cc2ccc(C(C)(C#N)Cc3c4ccccc4nn3C)cc2[nH]c1=O` (stereo not drawn) [Compound 347], the IC50 is 3980 nM.
For `CCc1cc2ccc(C(C)(C#N)Cc3cc(OC)nc(OC)c3)cc2[nH]c1=O` (stereo not drawn) [Compound 350], for the setting “Alamar Blue”, the IC50 was 1580 nM.
Same read-out and setting: to `CCc1cc2ccc(C(C)(C#N)Cc3cc(Cl)nc(OC)c3)cc2[nH]c1=O` (stereo not drawn) [Compound 351] belongs 501 nM.

(Values after patent publication US8778966B2, “Quinolinone derivatives as PARP and tank inhibitors” (Janssen Pharmaceutica, NV, priority 2007, dated 2014).)
